The record followed here is US10577363B2, “Substituted piperidine compounds” (EPIZYME, INC., priority 2014, dated 2020).

The term IC50 denotes the concentration at which inhibition is half-maximal.

This assay deals with SMYD3 (Homo sapiens (Human), UniProt Q9H7B4). Kind of assay: SMYD3 biochemical assay (SPA, 3H-SAM methylation of MEKK2 protein substrate). The note with it: read-out: SMYD3 Biochem IC50 (μM)*. An excerpt:
S-adenosylmethionine (SAM), S-adenosylhomocysteine (SAH), Tris, Tween20, dimethylsulfoxide (DMSO), bovine skin gelatin (BSG), and Tris(2-carboxyethyl)phosphine hydrochloride solution (TCEP) were purchased from Sigma-Aldrich at the highest level of purity possible. ^3H-SAM was purchase from American Radiolabeled Chemicals with a specific activity of 80 Ci/mmol. 384-well opaque white OptiPlates and SPA beads (Perkin Elmer, catalog # RPNQ0013) were purchased from PerkinElmer.
N-terminally GST-tagged MEKK2 (MAP3K2) protein corresponding to reference sequence AAF63496.3 was purchased from Life Technologies (catalog # PV4010). This protein was expressed in High Five insect cells and purified to >85% purity. Protein identity was confirmed by MS/MS analysis after proteolytic digestion. The protein sequence used was:
Full-length human SMYD3 isoform 1 (BAB86333) was inserted into a modified pET21b plasmid containing a His6 tag and TEV and SUMO cleavage sites.
E. coli (BL21 codonplus RIL strain, Stratagene) were transformed with plasmid pEPZ553 by mixing competent cells and plasmid DNA and incubating on ice for 30 minutes followed by heat shock at 42° C. for 1 minute and cooling on ice for 2 minutes. Transformed cells were grown and selected on LB agar with 100 μg/mL ampicillin and 17 μg/mL chloramphenicol at 37° C. overnight. A single clone was used to inoculate 200 mL of LB medium with 100 μg/mL ampicillin and 17 μg/mL chloramphenicol and incubated at 37° C. on an orbital shaker at 180 rpm. Once in log growth, the culture was diluted 1:100 into 2 L of LB medium and grown until OD600 was about 0.3 after which the culture was incubated at 15° C. and 160 rpm. Once OD600 reached about 0.4, IPTG was added to a final concentration of 0.1 mM and the cells were grown overnight at 15° C. and 160 rpm. Cells were harvested by centrifugation at 8000 rpm, for 4 minutes at 4° C. and stored at −80° C. for purification.
The column was washed with Buffer B (Buffer A plus 20 mM imidazole) and His-tagged SMYD3 was eluted with Buffer C (Buffer A plus 300 mM imidazole). The His tag, TEV and SUMO cleavage sites were removed generating native SMYD3 by addition of ULP1 protein at a ratio of 1:200 (ULP1:SMYD3). Imidazole was removed by dialysis overnight in Buffer A. The dialyzed solution was applied to a second Nickel column and the native SMYD3 protein was collected from the column flow-through. The flow-through was dialyzed in Buffer D (25 mM Tris, 5% glycerol, 5 mM β-mercaptoethanol, 50 mM NaCl, pH7.8) and ULP1 was removed using a Q sepharose fast flow column.
General Procedure for SMYD3 Enzyme Assays on MEKK2 Protein Substrate
The assays were all performed in a buffer consisting of 25 mM Tris-Cl pH 8.0, 1 mM TCEP, 0.005% BSG, and 0.005% Tween 20, prepared on the day of use. […] DMSO (1 ul) was added to Columns 11, 12, 23, 24, rows A-H for the maximum signal control and 1 ul of SAH, a known product and inhibitor of SMYD3, was added to columns 11, 12, 23, 24, rows I-P for the minimum signal control. A cocktail (40 ul) containing the SMYD3 enzyme was added by Multidrop Combi (Thermo-Fisher). The compounds were allowed to incubate with SMYD3 for 30 min at room temperature, then a cocktail (10 ul) containing SAM and MEKK2 was added to initiate the reaction (final volume=51 ul). […] The assays were stopped by the addition of non-radiolabeled SAM (10 ul) to a final concentration of 100 uM, which dilutes the ^3H-SAM to a level where its incorporation into MEKK2 is no longer detectable. Radiolabeled MEKK2 was detected using a scintillation proximity assay (SPA). 10 uL of a 10 mg/mL solution of SPA beads in 0.5 M citric acid was added and the plates centrifuged at 600 rpm for 1 min to precipitate the radiolabeled MEKK2 onto the SPA beads. The plates were then read in a PerkinElmer TopCount plate reader to measure the quantity of ^3H-labeled MEKK2 as disintegrations per minute (dpm) or alternatively, referred to as counts per minute (cpm).
Regarding `C[C@H](N)C(=O)NC[C@@H](Cc1ccc(O)c(I)c1)C(=O)N1CCC(NC(=O)c2cc(C3CC3)on2)CC1` [compound 61, N-(1-((R)-3-((S)-2-aminopropanamido)-2-(4-hydroxy-3-iodobenzyl)propanoyl)piperidin-4-yl)-5-cyclopropylisoxazole-3-carboxamide], the IC50 amounted to 15.3 µM. Turning to `C[C@H](N)C(=O)NC[C@H](Cc1ccc(O)c(I)c1)C(=O)N1CCC(NC(=O)c2cc(C3CC3)on2)CC1` [compound 62, N-(1-((S)-3-((S)-2-aminopropanamido)-2-(4-hydroxy-3-iodobenzyl)propanoyl)piperidin-4-yl)-5-cyclopropylisoxazole-3-carboxamide], the half-maximal inhibitory concentration (IC50) turned out to be 1.33 µM. As for `NC[C@H](Cc1ccc(O)c(Cl)c1)C(=O)N1CCC(NC(=O)c2cc(C3CC3)on2)CC1` [compound 64, (S)-N-(1-(3-amino-2-(3-chloro-4-hydroxybenzyl)propanoyl)piperidin-4-yl)-5-cyclopropylisoxazole-3-carboxamide], the figure is 7.16 µM; as for `C[C@H]1CN(C(=O)[C@@H](N)Cc2ccc(O)cc2)CCC1NC(=O)c1cc(C2CC2)on1` (stereo partly drawn) [compound 67, N-((3S)-1-(L-tyrosyl)-3-methylpiperidin-4-yl)-5-cyclopropylisoxazole-3-carboxamide], 2.32 µM; as for `C[C@@H]1CN(C(=O)[C@@H](N)Cc2ccc(O)cc2)CCC1NC(=O)c1cc(C2CC2)on1` (stereo partly drawn) [compound 68, N-((3R)-1-(L-tyrosyl)-3-methylpiperidin-4-yl)-5-cyclopropylisoxazole-3-carboxamide], 1.69 µM. Take `C[C@H]1CC(NC(=O)c2cc(C3CC3)on2)CCN1C(=O)CCN1CCCC1` (stereo partly drawn) [compound 69, 5-cyclopropyl-N-((2S)-2-methyl-1-(3-(pyrrolidin-1-yl)propanoyl)piperidin-4-yl)isoxazole-3-carboxamide]: the IC50 is 12.4 µM. On to `C[C@@H]1CC(NC(=O)c2cc(C3CC3)on2)CCN1C(=O)CCN1CCCC1` (stereo partly drawn) [compound 70, 5-cyclopropyl-N-((2R)-2-methyl-1-(3-(pyrrolidin-1-yl)propanoyl)piperidin-4-yl)isoxazole-3-carboxamide], for which the half-maximal inhibitory concentration (IC50) was 7.73 µM. Consider `C[C@H]1CC(NC(=O)c2cc(C3CC3)on2)CCN1C(=O)[C@H]1C[C@@H](N)C1` (stereo partly drawn) [compound 71, N-((2S)-1-((1s,3R)-3-aminocyclobutane-1-carbonyl)-2-methylpiperidin-4-yl)-5-cyclopropylisoxazole-3-carboxamide], for which the IC50 worked out at 2.54 µM. On to `C[C@H]1CC(NC(=O)c2cc(C3CC3)on2)CCN1C(=O)[C@H]1C[C@H](N)C1` (stereo partly drawn) [compound 72, N-((2S)-1-((1r,3S)-3-aminocyclobutane-1-carbonyl)-2-methylpiperidin-4-yl)-5-cyclopropylisoxazole-3-carboxamide], for which the IC50 was found to be 2.72 µM. In the case of `N[C@H]1CC[C@H](C(=O)N2C3CCCC2CC(NC(=O)c2cc(C4CC4)on2)C3)CC1` (stereo partly shown) [compound 73, N-(9-((1r,4r)-4-aminocyclohexane-1-carbonyl)-9-azabicyclo[3.3.1]nonan-3-yl)-5-cyclopropylisoxazole-3-carboxamide], the 50% inhibitory concentration (IC50) is 5.35 µM. Consider `CCS(=O)(=O)N1CCC(NC(=O)c2cc(C3CC3)on2)C[C@H]1C` (stereo partly drawn) [compound 75, 5-cyclopropyl-N-((2R)-1-(ethylsulfonyl)-2-methylpiperidin-4-yl)isoxazole-3-carboxamide], for which the IC50 was 7.31 µM. The result for `CC[C@H]1CN(C(=O)CC2CCNCC2)CC[C@@H]1NC(=O)c1cc(C2CC2)on1` [compound 76, 5-cyclopropyl-N-((3S,4S)-3-ethyl-1-(2-(piperidin-4-yl)acetyl)piperidin-4-yl)isoxazole-3-carboxamide] reads 0.541 µM; that for `N[C@H](Cc1ccc(O)cc1)CN1CCC(NC(=O)c2cc(C3CC3)on2)CC1` [compound 79, (R)-N-(1-(2-amino-3-(4-hydroxyphenyl)propyl)piperidin-4-yl)-5-cyclopropylisoxazole-3-carboxamide], 20.4 µM.

For `CC1CN(C(=O)CCN)CCC1NC(=O)c1cc(C2CC2)on1` (stereo not shown) [compound 80, N-(1-(3-aminopropanoyl)-3-methylpiperidin-4-yl)-5-cyclopropylisoxazole-3-carboxamide], the 50% inhibitory concentration (IC50) came to 6.81 µM. As for `C[C@@H]1CC(NC(=O)c2cc(C3CC3)on2)CCN1C(=O)CN` (stereo partly drawn) [compound 81, 5-cyclopropyl-N-((2R)-1-glycyl-2-methylpiperidin-4-yl)isoxazole-3-carboxamide], the figure is 22.1 µM; as for `C[C@H]1C[C@@H](NC(=O)c2cc(C3CC3)on2)CCN1C(=O)CCN` [compound 82, N-((2S,4S)-1-(3-aminopropanoyl)-2-methylpiperidin-4-yl)-5-cyclopropylisoxazole-3-carboxamide], 10.5 µM. For `C[C@H]1C[C@H](NC(=O)c2cc(C3CC3)on2)CCN1C(=O)CCN` [compound 83, N-((2S,4R)-1-(3-aminopropanoyl)-2-methylpiperidin-4-yl)-5-cyclopropylisoxazole-3-carboxamide], the half-maximal inhibitory concentration (IC50) is 6.6 µM. Consider `C[C@@H]1CC(NC(=O)c2cc(C3CC3)on2)CCN1C(=O)CCN` (stereo partly drawn) [compound 84, N-((2R)-1-(3-aminopropanoyl)-2-methylpiperidin-4-yl)-5-cyclopropylisoxazole-3-carboxamide], for which the IC50 turned out to be 6.14 µM. `C[C@H]1CC(NC(=O)c2cc(C3CC3)on2)CCN1C(=O)[C@@H]1CC[C@@H](N)C1` (stereo partly drawn) [compound 85, N-((2S)-1-((1R,3R)-3-aminocyclopentane-1-carbonyl)-2-methylpiperidin-4-yl)-5-cyclopropylisoxazole-3-carboxamide]: the IC50 stood at 2.37 µM. As to `C[C@H]1CC(NC(=O)c2cc(C3CC3)on2)CCN1C(=O)[C@@H]1CC[C@H](N)C1` (stereo partly drawn) [compound 86, N-((2S)-1-((1R,3S)-3-aminocyclopentane-1-carbonyl)-2-methylpiperidin-4-yl)-5-cyclopropylisoxazole-3-carboxamide], the IC50 was 2.56 µM. Consider `C[C@@H]1CC(NC(=O)c2cc(C3CC3)on2)CCN1C(=O)[C@H]1C[C@@H](N)C1` (stereo partly drawn) [compound 87, N-((2R)-1-((1s,3S)-3-aminocyclobutane-1-carbonyl)-2-methylpiperidin-4-yl)-5-cyclopropylisoxazole-3-carboxamide], for which the IC50 amounted to 3.25 µM. The result for `NC1CCC(C(=O)N2CCC(NC(=O)c3cc(C4CC4)on3)CC2c2ccccc2)CC1` (stereo not shown) [compound 89, N-(1-((1r,4r)-4-aminocyclohexane-1-carbonyl)-2-phenylpiperidin-4-yl)-5-cyclopropylisoxazole-3-carboxamide] reads 3.39 µM; that for `CN[C@H]1CC[C@H](C(=O)N2CCC(NC(=O)c3cc(C4CC4)on3)C[C@@H]2C)CC1` (stereo partly drawn) [compound 90, 5-cyclopropyl-N-((2S)-2-methyl-1-((1r,4S)-4-(methylamino)cyclohexane-1-carbonyl)piperidin-4-yl)isoxazole-3-carboxamide], 5.33 µM.

Turning to `C[C@H]1CC(NC(=O)c2cc(C3CC3)on2)CCN1C(=O)CN1CCNCC1` (stereo partly drawn) [compound 91, 5-cyclopropyl-N-((2S)-2-methyl-1-(2-(piperazin-1-yl)acetyl)piperidin-4-yl)isoxazole-3-carboxamide], the IC50 was found to be 3.91 µM. `C[C@@H]1CC(NC(=O)c2cc(C3CC3)on2)CCN1C(=O)CN1CCNCC1` (stereo partly drawn) [compound 92, 5-cyclopropyl-N-((2R)-2-methyl-1-(2-(piperazin-1-yl)acetyl)piperidin-4-yl)isoxazole-3-carboxamide]: the IC50 stood at 0.778 µM.
